The values below come from article PMC12363265, “Glucagon-like peptide-1 receptor agonists for treatment of diabetes and obesity: advantage of oral delivery” (Frontiers in Drug Delivery, 2024).

Series [1] has as its system blood glucose. The series can be described thus: Blood glucose response to exendin-4 in anaesthetised rats. As to conditions: exendin-4 co-formulated in Axcess with recombinant human insulin, via the intestine, n = 5. It counts as in vivo, rat.
Text: Male Sprague-Dawley rats aged 8 weeks were checked for health status on delivery and assigned to cages (2 or 3 animals per cage) within the social groups at delivery and with animals of similar weight in the same cage. Animals were acclimated to the facility for 7 days before transfer to the study room for a further 4 days before the start of the experiment. The rats were randomly allotted to control and treatment groups. Animals were identified by cage tag and corresponding colour tail markings. At day −2 daily 24 h food intake was registered for each cage with 2-3 rats. At 14.00 h on day −1 (i.e., the day prior to the surgery) 50% of the usual food consumed in that interval was offered to the rats. […]
All data were entered into Excel spreadsheets and subsequently subjected to relevant statistical analyses (Graph Pad Prism software). […] Bioavailability=AUC peptide enteral administration/quantity of peptide administered enterally×quantity of peptide injected i.v./AUC of peptide after i.v. injection×100 Biopotency=biological activity after enteral administration/quantity of peptide administered enterally×quantity of peptide injected i.v./biological activity after i.v. injection×100
For series [2] the following is noted: ref unpublished data; cited from earlier work. From the text: In a separate experiment, intestinal delivery was studied of two GLP-1 analogues where modifications were made with the aim of increasing their circulating half-life by several hours relative to the native molecule. In one variant, G001, the molecule was identical to native GLP-1, except that N-terminal amino group was conjugated with salicylic acid. In the second, lipidated, analogue, G002, the N-terminal was conjugated with trans-3-hexenoic acid, and in position 14, leucine was replaced by octyl glycine. In addition, glutamate and alanine in positions 21 and 24 respectively were reversed, an ...

Where a SMILES comes first, the peptide text is derived from it. [ ]: non-standard residue; d: D form. The star is where a group is joined. ξ: configuration not given here. ξGly(octyl) = CCCCCCCCC(N)C(=O)O; Hexenoyl(3E) = CC/C=C/CC(=O)*

Consider “recombinant human insulin: recombinant human insulin co-formulated with exendin-4 in the Axcess formulation”, for which the “blood glucose with co-formulated insulin” value in series [1] is “reduce blood glucose relative to exendin-4 administered alone”. With `CC/C=C/CC(=O)N[C@@H](Cc1c[nH]cn1)C(=O)N[C@@H](C)C(=O)N[C@@H](CCC(=O)O)C(=O)NCC(=O)N[C@H](C(=O)N[C@@H](Cc1ccccc1)C(=O)N[C@H](C(=O)N[C@@H](CO)C(=O)N[C@@H](CC(=O)O)C(=O)N[C@H](C(=O)N[C@@H](CO)C(=O)N[C@@H](CO)C(=O)N[C@@H](Cc1ccc(O)cc1)C(=O)NC(CCCCCCCC)C(=O)N[C@@H](CCC(=O)O)C(=O)NCC(=O)N[C@@H](CCC(N)=O)C(=O)N[C@@H](C)C(=O)N[C@@H](C)C(=O)N[C@@H](CCCCN)C(=O)N[C@@H](C)C(=O)N[C@@H](Cc1ccccc1)C(=O)N[C@H](C(=O)N[C@@H](CCC(=O)O)C(=O)N[C@@H](Cc1c[nH]c2ccccc12)C(=O)N[C@@H](CC(C)C)C(=O)N[C@H](C(=O)N[C@@H](CCCCN)C(=O)N[C@@H](CC(N)=O)C(N)=O)C(C)C)[C@@H](C)CC)C(C)C)[C@@H](C)O)[C@@H](C)O` (stereo partly drawn) [G002] ({Hexenoyl(3E)}-HAEGTFTSDVSSY[ξGly(octyl)]EGQAAKAFIEWLVKN-NH2), in series [2], the half-life in rats is approximately 12 h.

Regarding “Sal-HAEGTFTSDVSSYLEGQAAKEFIAWLVKGR-NH2 [G001, identical to native GLP-1, except that N-terminal amino group was conjugated with salicylic acid]”, in series [2], the half-life in rats was 0.417 h.
